Columns and labels:
[1] = target: T1, GPR4 (Homo sapiens, UniProt P46093); assay: Internalization of GPR4-GFP in HEK293 cells (confocal microscopy); type: cell-based; settings: 1 μM lipid, 37° C., GPR4-GFP HEK293 cells
T1 construct: were used to generate full length GPR4, which was digested with EcoRI and Xba I and cloned into the pBs3HA vector; expressed in transfected cells
Experimental: pGPR4-GFP stably expressing HEK293 cells were cultured in 6 cm tissue culture dishes in RPMI1640 with 10% FBS. After 16-24 h serum starvation, cells were treated with different lipids at 37° C. for 2 h. Cells were washed with cold PBS and fixed with 4% paraformaldehyde in PBS. The subcellular localization of GPR4-GFP protein was visualized under a Leica TV confocal fluorescence microscope with a 63× oil immersion lens (Wetzler, Heidelberg, Germany). The excitation and emission wavelengths were 488 nm and 515-540 nm, respectively.
G protein coupled receptors undergo agonist-dependent desensitization and internalization. When HEK293 cells are transfected with the pEGFP-N1 vector, GFP protein is expressed in the cytosol of the cells. The GPR4-GFP and TDAG8-GFP fusion proteins, on the other hand, was expressed only on the plasma membrane.

[2] = system: Swiss 3T3 cells; assay: DNA synthesis ([3H]thymidine incorporation) in parental and GFP-infected Swiss 3T3 cells; type: cell-based
Experimental: The effect of SPC and LPC on DNA synthesis was measured using [^3H] thymidine incorporation. Briefly, GPR4-ires-GFP- and GFP-Swiss 3T3 cells were plated in 96-well plates, serum-starved for 24 h, and treated with SPC, LPC, or other lipids in serum-free DMEM for 24 h. Cells were incubated with 0.75 μCi/ml [^3H]thymidine in serum-free DMEM for the last 18 h. Cells were harvested onto filter papers presoaked in 1% polyethylenimine using the automated cell harvester HARVEST 96. Incorporated [^3H]thymidine was counted in a 1450 Microbeta Trilux Liquid Scintillation and Luminescence Counter (Perkin-Elmer-Wallac, Inc.).

[3] = target: T1, GPR4; assay: Cell migration in modified Boyden chamber, GPR4-ires-GFP vs GFP Swiss 3T3 cells; type: cell-based; settings: for increase of cell migration over GFP-Swiss 3T3 cells: 100 nM, lower chamber only; for chemokinetic assay: cell motility vs controls: lipid 100 nM in both upper and lower chambers, GFP or GFP-GPR4 Swiss 3T3 cells
Experimental: Chemotaxis was measured in a modified Boyden chamber assay. Briefly, different lipids were added to the lower chambers. GPR4-ires-GFP- and GFP-Swiss 3T3 cells were serum starved for 4 h, trypsinized, and seeded in the upper chambers of Boyden-transwell plates (Corning Inc., Corning, N.Y.). The chambers were incubated for 6 to 8 h. The number of cells that migrated to the lower face of the membrane was counted in 4 random fields. Data are represented as the average ±SD of three independent experiments. For the chemokinetic assay, the same concentrations of lipids were added to both the upper and lower chambers. For Rho inhibition studies, C3-exoenxyme was transiently transfected into Swiss 3T3 cells and cell migration assays were performed 48 hours later.

[4] = system: vector-transfected HEK293 cells; assay: SRE luciferase reporter in vector-transfected HEK293 cells; type: cell-based, human
Experimental: The serum-response element (SRE) reporter system is a sensitive assay for receptors of lipid factors (An et al. (1998) J Biol Chem 273, 7906-7910; An et al. (1999) Mol Pharmacol 55, 787-794). The SRE reporter system used herein (pSRE-Luc) was a gift from Dr. Songzhu An (UCSF), or may be purchased from Stratagene (La Jolla, Calif.). Both systems give identical results. HEK293 and HEK293GPR4 cells were cultured in RPMI1640 with 10% FBS in 10 cm dishes to ˜85% confluence. To the cells in each dish, pSRE-Luc (10 μg) was transfected in the presence of 60 μl LipofectAMINE reagent. Cells were seeded in 96-well plates 16 h after transfection, incubated for another 24 h in RPMI1640 with 10% FBS, and starved in serum-free medium for 16 h. SPC (dissolved in PBS to 10 mM) and other lipids (LPCs were dissolved in 70% ethanol. Other lipids were dissolved in PBS, 70-95% ethanol, or 100% MeOH) were diluted in serum free RPMI 1640 and added to the cells, followed by a 10 h incubation. Luciferase activity was measured in Microlite™ 1 plates (DYNEX Technologies, Inc., Virginia) using 60 μl of cell lysate and 20 μl luciferase substrate. PTX (100 ng/ml) was added during the 16 h serum starvation period and pcDNA1-C3 (encoding the C3-exoenzyme, 2 μg) was co-transfected with pSRE-Luc (10 μg). All experiments were performed in quadruplicate and were repeated at least three times. The Student's t test was performed using the GraphPad Instat software (San Diego, Calif.). p<0.05 was considered to be statistically significant.

[5] = target: T2, TDAG8 (Homo sapiens, UniProt Q8IYL9); assay: Transwell cell migration of TDAG8-transfected HEK293 cells; type: cell-based; settings: TDAG8 overexpressed in HEK293 cells
T2 construct: expressed in transfected cells
T2 sequence (Q8IYL9 whole entry): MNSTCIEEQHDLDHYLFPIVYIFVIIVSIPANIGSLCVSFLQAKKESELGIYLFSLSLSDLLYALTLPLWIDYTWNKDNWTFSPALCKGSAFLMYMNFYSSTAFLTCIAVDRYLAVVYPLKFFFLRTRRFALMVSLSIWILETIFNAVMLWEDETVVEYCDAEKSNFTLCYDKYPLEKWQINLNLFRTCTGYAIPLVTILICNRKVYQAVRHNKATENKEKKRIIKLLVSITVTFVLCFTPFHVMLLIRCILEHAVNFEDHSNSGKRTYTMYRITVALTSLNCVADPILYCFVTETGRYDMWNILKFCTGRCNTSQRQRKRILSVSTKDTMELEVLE
Experimental: To determine whether GPR4 and/or TDGA8 can mediate the LPC-induced cell migration, we transfected HEK293 cells with GPR4 or TDAG8. Cell migration was performed in Transwell apparatus. GPR4-transfected HEK293 cells, and TDAG8-transfected HEK293 cells migrated to the low-phase of the membrane and the lower chamber of the Transwell in response to SPC and LPC, used at 0.2 μM.

[6] = target: T3, endogenous PAF receptor (Homo sapiens, UniProt P25105); assay: Calcium assay of the endogenous PAF receptor in MCF10A cells; type: cell-based; settings: parental MCF10A cells
T3 construct: endogenous in cells; host or cells: MCF10A (parental and GPR4-GFP-transfected)
T3 sequence (P25105 whole entry): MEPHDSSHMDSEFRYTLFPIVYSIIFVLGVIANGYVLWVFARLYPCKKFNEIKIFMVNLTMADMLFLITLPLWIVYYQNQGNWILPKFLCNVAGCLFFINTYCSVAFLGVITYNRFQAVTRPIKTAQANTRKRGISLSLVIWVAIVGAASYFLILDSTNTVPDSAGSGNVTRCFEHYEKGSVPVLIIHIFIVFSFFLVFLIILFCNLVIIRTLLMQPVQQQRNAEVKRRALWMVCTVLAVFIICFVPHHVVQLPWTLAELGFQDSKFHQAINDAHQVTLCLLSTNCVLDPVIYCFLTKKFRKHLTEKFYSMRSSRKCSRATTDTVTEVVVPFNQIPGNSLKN
Experimental: Measurement of [Ca^2+]i, was performed as described previously in Xu et al. (2000) Nat Cell Biol 2, 261-267. Briefly, pGPR4-GFP-transfected MCF10A cells were grown in specialized glass-bottom dishes (Bioptech, Inc., Butler, Pa.) and loaded with fura-2 in HEPES buffered saline. Using a dual-wavelength spectrofluorometer (RFK-6002, Photon Technology Int'l, So. Brunswick, N.J.) coupled to an inverted fluorescence microscope (Olympus, IX-70, Lake Success, N.Y.), GFP-positive cells were identified using an excitation wavelength of 488 nm, a dichroic 505 nm long-pass filter and an emitter filter at bandpass of 535 nm (Chroma Technology, Brattleboro, Vt.). Measurements of [Ca^2+]i were performed on individual GPR4-GFP positive cells at excitation wavelengths of 340 and 380 nm and an emission wavelength of 510 nm. Conversion of the 340/380 ratio value into [Ca^2+]i in nM was estimated by comparing the cellular fluorescence ratio with ratios acquired using fura-2 (free acid) in buffers containing known Ca^2+ concentrations. [Ca^2+]i was then calculated as described by Grynkiewicz et al. (1985) J Biol Chem 260, 3440-3450. All calcium assays were performed in the presence of 1 mM EGTA in the assay buffers. Therefore, intracellular calcium release, not calcium influx, was analyzed.
Therefore, it is unlikely that the increase in calcium induced by LPC was mediated by a PAF receptor.

T1 sequence (P46093 whole entry): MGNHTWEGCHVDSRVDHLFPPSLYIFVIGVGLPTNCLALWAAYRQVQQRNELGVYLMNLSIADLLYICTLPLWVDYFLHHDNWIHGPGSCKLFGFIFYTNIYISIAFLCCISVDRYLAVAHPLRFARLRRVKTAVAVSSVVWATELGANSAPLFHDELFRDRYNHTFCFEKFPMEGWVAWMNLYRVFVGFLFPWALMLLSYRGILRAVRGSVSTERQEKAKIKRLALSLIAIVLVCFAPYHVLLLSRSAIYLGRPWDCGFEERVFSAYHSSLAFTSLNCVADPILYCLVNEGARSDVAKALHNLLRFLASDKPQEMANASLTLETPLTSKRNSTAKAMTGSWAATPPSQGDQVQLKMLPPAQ

## CCCCCCCCCCCCCCCC(=O)OC[C@@H](O)COP(=O)([O-])OCC[N+](C)(C)C [16:0-LPC]
[1]
  internalization of GPR4: induced internalization of GPR4
[2]; GFP-expressing cells
  DNA synthesis response (in words): did not respond significantly
[3]
  increase of cell migration over GFP-Swiss 3T3 cells: 1.7 fold
  chemokinetic assay: cell motility vs controls: did not significantly change cell motility
[4]
  transcriptional activation of SRE (in words): not

## CCCCCCCCCCCCC/C=C/[C@@H](O)[C@@H](N)COP(=O)([O-])OCC[N+](C)(C)C [SPC, Sphingosylphosphorylcholine]
[1]
  internalization of GPR4: induced internalization of GPR4
[2]; 3 μM, parental and GFP-infected cells
  increase of DNA synthesis: approximately 6.3 fold
[5]
  increase of cell migration compared with control cells: four to five-fold
[3]
  increase of cell migration over GFP-Swiss 3T3 cells: 2.0 fold
  chemokinetic assay: cell motility vs controls: did not significantly change cell motility
[4]; lipid 1 μM
  activation of SRE reporter: ≤ 1.5 fold
[6]
  calcium increase through the endogenous PAF receptor in parental cells: not able to induce an increase in calcium

## lysophosphatidylcholine [LPC]
[5]
  increase of cell migration compared with control cells: four to five-fold
[6]
  calcium increase through the endogenous PAF receptor in parental cells: not able to induce an increase in calcium

Source: patent publication US20020107197A1, “Ligands for G protein coupled receptors and methods of using them” (priority 2000, published 2002)
